From the kinase profiling compilation of Christmann-Franck et al. (2016)

Assays:
Test in all cases: KINOMEscan competition binding
Details in all cases: compound 10.0 µM
[1] = tested on: FLT3 (human), P36888 [N841I]
[2] = tested on: ABL1 (human), P00519 [E255K]
[3] = tested on: EGFR (human), P00533 [L861Q]
[4] = tested on: PIK3CA (human), P42336 [C420R]
[5] = tested on: PIK3CA (human), P42336 [E545A]
[6] = tested on: EGFR (human), P00533 [P753S; 747-752 del]
[7] = tested on: EIF2AK4 KD2 (human), Q9P2K8 [S808G]
[8] = tested on: PIK3CA (human), P42336 [H1047Y]
[9] = tested on: PIK3CA (human), P42336 [Q546K]
[10] = tested on: KIT (human), P10721 [V559D/T670I]
[11] = tested on: PIK3CA (human), P42336 [E545K]
[12] = tested on: KIT (human), P10721 [V559D]
[13] = tested on: FLT3 (human), P36888 [ITD]
[14] = tested on: EGFR (human), P00533 [G719S]
[15] = tested on: EGFR (human), P00533 [746-750 del]
[16] = tested on: PIK3CA (human), P42336 [I800L]
[17] = tested on: KIT (human), P10721 [D816V]
[18] = tested on: FLT3 (human), P36888 [K663Q]
[19] = tested on: ABL1 (human), P00519 [M351T]

Sequence of PIK3CA (human), P42336 [I800L] (P42336 whole entry I800L, looked up): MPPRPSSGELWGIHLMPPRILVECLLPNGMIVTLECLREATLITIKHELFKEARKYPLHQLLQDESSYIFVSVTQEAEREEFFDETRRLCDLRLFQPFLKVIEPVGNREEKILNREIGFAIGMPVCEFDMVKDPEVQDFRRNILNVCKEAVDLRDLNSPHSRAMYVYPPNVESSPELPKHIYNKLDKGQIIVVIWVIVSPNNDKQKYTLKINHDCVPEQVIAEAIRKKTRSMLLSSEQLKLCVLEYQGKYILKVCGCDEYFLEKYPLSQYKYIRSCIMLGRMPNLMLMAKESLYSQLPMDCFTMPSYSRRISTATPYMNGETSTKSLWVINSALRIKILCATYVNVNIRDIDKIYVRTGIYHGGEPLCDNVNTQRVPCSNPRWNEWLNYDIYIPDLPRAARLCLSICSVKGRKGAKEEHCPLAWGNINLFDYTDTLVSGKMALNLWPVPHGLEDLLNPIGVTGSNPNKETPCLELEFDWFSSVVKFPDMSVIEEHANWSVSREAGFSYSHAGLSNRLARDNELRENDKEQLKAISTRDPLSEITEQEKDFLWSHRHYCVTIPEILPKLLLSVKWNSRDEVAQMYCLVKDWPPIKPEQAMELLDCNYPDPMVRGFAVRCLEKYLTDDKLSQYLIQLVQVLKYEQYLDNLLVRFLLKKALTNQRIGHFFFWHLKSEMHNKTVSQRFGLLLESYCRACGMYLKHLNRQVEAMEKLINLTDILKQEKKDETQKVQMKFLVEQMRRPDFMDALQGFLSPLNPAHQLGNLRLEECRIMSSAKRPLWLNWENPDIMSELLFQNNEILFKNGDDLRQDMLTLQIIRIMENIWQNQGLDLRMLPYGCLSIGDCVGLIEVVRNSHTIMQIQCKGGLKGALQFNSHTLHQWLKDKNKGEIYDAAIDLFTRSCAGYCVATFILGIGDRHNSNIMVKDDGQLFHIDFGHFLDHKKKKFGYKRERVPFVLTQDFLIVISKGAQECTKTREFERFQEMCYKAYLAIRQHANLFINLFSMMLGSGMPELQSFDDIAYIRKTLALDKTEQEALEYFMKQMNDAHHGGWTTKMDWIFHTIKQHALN
Sequence of EIF2AK4 KD2 (human), Q9P2K8 [S808G] (Q9P2K8 whole entry S808G, looked up): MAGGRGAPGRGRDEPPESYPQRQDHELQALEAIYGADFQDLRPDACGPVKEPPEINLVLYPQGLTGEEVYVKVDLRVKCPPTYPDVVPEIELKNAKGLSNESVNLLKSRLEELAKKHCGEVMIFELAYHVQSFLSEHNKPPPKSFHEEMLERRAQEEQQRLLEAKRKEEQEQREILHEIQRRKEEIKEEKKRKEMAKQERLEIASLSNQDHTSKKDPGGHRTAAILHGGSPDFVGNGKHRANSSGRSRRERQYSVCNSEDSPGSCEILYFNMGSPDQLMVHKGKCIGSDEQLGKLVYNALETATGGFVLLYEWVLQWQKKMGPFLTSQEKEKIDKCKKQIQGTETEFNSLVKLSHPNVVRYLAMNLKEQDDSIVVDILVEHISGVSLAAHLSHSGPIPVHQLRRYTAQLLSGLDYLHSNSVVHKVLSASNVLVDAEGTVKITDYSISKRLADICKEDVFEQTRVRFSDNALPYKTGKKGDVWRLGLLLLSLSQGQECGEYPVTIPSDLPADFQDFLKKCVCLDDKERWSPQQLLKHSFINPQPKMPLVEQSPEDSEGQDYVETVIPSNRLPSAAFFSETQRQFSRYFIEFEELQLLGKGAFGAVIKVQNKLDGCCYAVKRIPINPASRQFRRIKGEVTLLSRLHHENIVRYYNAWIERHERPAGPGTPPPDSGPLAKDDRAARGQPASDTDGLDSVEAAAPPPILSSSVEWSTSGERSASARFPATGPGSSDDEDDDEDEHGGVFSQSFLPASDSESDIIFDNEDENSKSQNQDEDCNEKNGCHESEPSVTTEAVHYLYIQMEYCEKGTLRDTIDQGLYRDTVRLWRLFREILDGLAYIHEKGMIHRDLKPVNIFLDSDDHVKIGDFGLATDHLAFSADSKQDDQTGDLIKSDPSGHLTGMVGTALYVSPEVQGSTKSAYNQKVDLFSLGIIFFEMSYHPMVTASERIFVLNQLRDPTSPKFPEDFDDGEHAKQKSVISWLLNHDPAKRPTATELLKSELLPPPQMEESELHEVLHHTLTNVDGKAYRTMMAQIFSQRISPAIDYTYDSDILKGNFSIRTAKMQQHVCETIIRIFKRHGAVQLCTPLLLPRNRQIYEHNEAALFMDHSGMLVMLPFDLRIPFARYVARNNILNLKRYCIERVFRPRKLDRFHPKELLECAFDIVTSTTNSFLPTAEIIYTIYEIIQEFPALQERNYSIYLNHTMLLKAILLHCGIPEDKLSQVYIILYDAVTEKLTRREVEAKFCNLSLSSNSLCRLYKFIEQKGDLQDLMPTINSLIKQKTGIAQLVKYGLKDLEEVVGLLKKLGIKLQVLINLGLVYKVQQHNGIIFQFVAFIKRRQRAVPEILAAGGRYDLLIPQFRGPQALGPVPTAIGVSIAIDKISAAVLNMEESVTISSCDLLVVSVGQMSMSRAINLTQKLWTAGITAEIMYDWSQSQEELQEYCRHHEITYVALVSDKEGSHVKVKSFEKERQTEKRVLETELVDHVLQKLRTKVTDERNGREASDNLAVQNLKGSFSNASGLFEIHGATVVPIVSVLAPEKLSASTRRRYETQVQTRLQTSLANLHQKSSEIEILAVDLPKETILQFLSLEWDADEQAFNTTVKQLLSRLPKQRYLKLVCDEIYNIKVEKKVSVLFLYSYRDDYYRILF
Sequence of KIT (human), P10721 [V559D/T670I] (P10721 whole entry V559D/T670I, looked up): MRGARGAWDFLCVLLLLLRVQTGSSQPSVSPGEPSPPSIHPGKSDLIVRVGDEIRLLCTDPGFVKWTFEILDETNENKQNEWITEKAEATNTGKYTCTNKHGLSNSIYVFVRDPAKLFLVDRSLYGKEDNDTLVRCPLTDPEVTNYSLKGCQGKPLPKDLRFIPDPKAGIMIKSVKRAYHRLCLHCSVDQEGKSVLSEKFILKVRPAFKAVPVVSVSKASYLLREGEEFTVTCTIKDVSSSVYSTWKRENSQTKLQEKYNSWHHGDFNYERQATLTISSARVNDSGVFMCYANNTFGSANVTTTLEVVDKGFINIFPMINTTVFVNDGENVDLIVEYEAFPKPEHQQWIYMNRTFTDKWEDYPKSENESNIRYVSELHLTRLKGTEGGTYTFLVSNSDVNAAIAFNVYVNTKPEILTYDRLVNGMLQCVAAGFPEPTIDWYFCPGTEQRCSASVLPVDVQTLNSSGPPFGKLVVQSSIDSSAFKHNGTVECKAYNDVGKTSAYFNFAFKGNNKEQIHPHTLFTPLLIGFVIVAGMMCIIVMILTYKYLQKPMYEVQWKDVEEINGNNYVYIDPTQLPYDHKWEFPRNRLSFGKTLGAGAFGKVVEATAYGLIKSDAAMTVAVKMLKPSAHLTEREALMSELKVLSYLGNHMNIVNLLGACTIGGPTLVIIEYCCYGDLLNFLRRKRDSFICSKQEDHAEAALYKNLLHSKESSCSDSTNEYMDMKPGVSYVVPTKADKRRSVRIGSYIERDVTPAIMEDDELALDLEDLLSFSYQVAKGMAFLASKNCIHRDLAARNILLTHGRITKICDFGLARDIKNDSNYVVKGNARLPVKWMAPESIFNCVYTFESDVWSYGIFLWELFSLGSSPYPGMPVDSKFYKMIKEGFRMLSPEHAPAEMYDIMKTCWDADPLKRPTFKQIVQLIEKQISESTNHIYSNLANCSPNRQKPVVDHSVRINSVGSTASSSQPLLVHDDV
Sequence of PIK3CA (human), P42336 [Q546K] (P42336 whole entry Q546K, looked up): as the sequence (P42336 whole entry I800L, looked up) above, with Q546K, L800I counted along it
Sequence of PIK3CA (human), P42336 [C420R] (P42336 whole entry C420R, looked up): as the sequence (P42336 whole entry I800L, looked up) above, with C420R, L800I counted along it
Sequence of KIT (human), P10721 [V559D] (P10721 whole entry V559D, looked up): as the sequence (P10721 whole entry V559D/T670I, looked up) above, with I670T counted along it
Sequence of PIK3CA (human), P42336 [E545A] (P42336 whole entry E545A, looked up): as the sequence (P42336 whole entry I800L, looked up) above, with E545A, L800I counted along it
Sequence of KIT (human), P10721 [D816V] (P10721 whole entry D816V, looked up): as the sequence (P10721 whole entry V559D/T670I, looked up) above, with D559V, I670T, D816V counted along it
Sequence of PIK3CA (human), P42336 [E545K] (P42336 whole entry E545K, looked up): as the sequence (P42336 whole entry I800L, looked up) above, with E545K, L800I counted along it
Sequence of PIK3CA (human), P42336 [H1047Y] (P42336 whole entry H1047Y, looked up): as the sequence (P42336 whole entry I800L, looked up) above, with L800I, H1047Y counted along it

SMILES	kinase still bound, per cent of control [1]	kinase still bound, per cent of control [2]	kinase still bound, per cent of control [3]	kinase still bound, per cent of control [4]	kinase still bound, per cent of control [5]	kinase still bound, per cent of control [6]	kinase still bound, per cent of control [7]	kinase still bound, per cent of control [8]	kinase still bound, per cent of control [9]	kinase still bound, per cent of control [10]	kinase still bound, per cent of control [11]	kinase still bound, per cent of control [12]	kinase still bound, per cent of control [13]	kinase still bound, per cent of control [14]	kinase still bound, per cent of control [15]	kinase still bound, per cent of control [16]	kinase still bound, per cent of control [17]	kinase still bound, per cent of control [18]	kinase still bound, per cent of control [19]
COc1ccc(N(C(=O)Oc2c(C)cccc2C)c2ccnc(Nc3ccc(N4CCN(C)CC4)cc3)n2)c(OC)c1	0.65%	0.3%	0.1%	100%	45%	0%	100%	94%	81%	48%	100%	0.25%	4.8%	0.45%	0%	100%	3.4%	3.4%	1.3%
CC1=C(C(=O)Nc2cc3cn[nH]c3cc2F)C(c2ccc(C(F)(F)F)cc2)CC(=O)N1 (stereo not given)	75%	77%	91%	63%	38%	100%	100%	43%	32%	88%	100%	82%	83%	57%	96%	100%	49%	78%	82%
COc1cc2ncnc(-n3nc(-c4ccccn4)nc3N)c2cc1OC	0.4%	0.4%	64%	41%	18%	68%	1.6%	24%	38%	47%	40%	3.4%	5.6%	57%	50%	2.8%	0.15%	21%	1.2%
N#Cc1cc(-c2ccnc(Nc3ccc(-n4cnc(-c5cccnc5)n4)cc3)n2)cc(N2CCOCC2)c1	12%	75%	92%	100%	58%	76%	3.3%	100%	75%	4.2%	100%	1%	28%	94%	67%	64%	5.3%	17%	69%
CCN1CCN(C(=O)Cc2ccc(Nc3ncc(F)c(Nc4ccc(C(=O)Nc5ccccc5Cl)cc4)n3)cc2)CC1	0%	6.2%	52%	57%	25%	38%	0.4%	62%	23%	21%	97%	0.5%	0.1%	78%	48%	88%	0.75%	0.4%	19%
